Test results: PubChem BioAssay AID588373 (NMMLSC, 2011)
pEC50: −log10 of the molar value.

target: Cell division control protein 42 homolog (Homo sapiens) (UniProt P60953); assay: Cdc42 activated mutant GTP-binding inhibitors, SAR follow-up, biochemical, probe extension, bead-based multiplex flow cytometry, round 1 (AID 588373); details: Bodipy-FL-GTP binding, EDTA
Sequence (P60953 whole entry, looked up): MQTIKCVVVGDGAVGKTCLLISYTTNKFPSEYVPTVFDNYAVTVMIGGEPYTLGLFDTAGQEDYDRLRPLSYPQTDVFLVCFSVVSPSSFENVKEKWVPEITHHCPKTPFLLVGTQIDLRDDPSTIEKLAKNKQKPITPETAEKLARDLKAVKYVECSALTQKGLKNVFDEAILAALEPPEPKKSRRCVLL

pEC50 | Structure (SMILES)
5.21 | NS(=O)(=O)c1ccc(N2N=C(c3ccccc3)CC2c2ccccc2)cc1 (stereo not drawn)
6.43 | O=C(C#Cc1ccccc1)c1cccc([N+](=O)[O-])c1
5.72 | COc1ccc(C2CC(c3ccccc3)=NN2c2ccc(S(N)(=O)=O)cc2)cc1 (stereo not drawn)
